Values quoted from earlier work in PubChem BioAssay AID1259409 (Chemical Carcinogenesis Research Information System (CCRIS), 2018).

Test system: rodent chemically induced tumor inhibition, incidence and multiplicity
Assay: CCRIS tumor inhibitor studies

For `CC1=C(/C=C/C(C)=C/C=C/C(C)=C/C=C/C=C(C)/C=C/C=C(C)/C=C/C2=C(C)CCCC2(C)C)C(C)(C)CCC1`, which “tumour outcome (control, treated, inhibition, significance)” value (Carcinogen: 1,2-DIMETHYLHYDRAZINE, 540-73-8, Dose [Inhibitor]: 0, 0.005% IN DIET FOR 14 WK BEGINNING 3 D PRIOR TO CARCINOGEN TREATMENT (STUDY DURATION: 26 WK), Route [Inhibitor]: ORAL, Species: RAT, Strain/Sex: SPRAGUE-DAWLEY/MALE, Target Tissue: Type of Lesion: INTESTINE: CARCINOMA, Dose [Carcinogen]: 20 MG/KG BW 1/WK FOR 12 WK, Promoter: NONE USED) is on record?
Its value is 23/28 (82%), 11/20 (55%), 33%, p<0.05.

What about the “tumour outcome (control, treated, inhibition, significance)” value (Carcinogen: 4-(METHYLNITROSAMINO)-1-(3-PYRIDYL)-1-BUTANONE [64091-50-5], Dose [Inhibitor]: 16 MG/KG SC 2X/WK FOR 16 WK BEGINNING 1 WK PRIOR TO FIRST CARCINOGEN DOSE (STUDY DURATION: 16 WK), Route [Inhibitor]: SUBCUTANEOUS, Species: MOUSE, Strain/Sex: A/J/FEMALE, Target Tissue: Type of Lesion: LUNG: ADENOMA OR ADENOCARCINOMA, Dose [Carcinogen]: 10 UMOL ONCE 1 WK POST FIRST INHIBITOR DOSE (STUDY DURATION: 16 WK), Promoter: NONE) of the same compound?
Its value is 100%, 100%, 0%, not significant.

What about the “tumour outcome (control, treated, inhibition, significance)” value (Carcinogen: 4-(METHYLNITROSAMINO)-1-(3-PYRIDYL)-1-BUTANONE [64091-50-5], Dose [Inhibitor]: 32 MG/KG SC 2X/WK FOR 17 WK BEGINNING 1 WK PRIOR TO FIRST CARCINOGEN DOSE (STUDY DURATION: 17 WK), Route [Inhibitor]: SUBCUTANEOUS, Species: MOUSE, Strain/Sex: A/J/FEMALE, Target Tissue: Type of Lesion: LUNG: ADENOMA, Dose [Carcinogen]: 10 UMOL ONCE 1 WK POST FIRST INHIBITOR DOSE (STUDY DURATION: 17 WK), Promoter: NONE) of the same compound?
The value was 100%, 100%, 0%, not significant.

What about the “tumour outcome (control, treated, inhibition, significance)” value (Carcinogen: 4-(METHYLNITROSAMINO)-1-(3-PYRIDYL)-1-BUTANONE [64091-50-5], Dose [Inhibitor]: 32 MG/KG SC 2X/WK FOR 53 WK BEGINNING 1 WK PRIOR TO FIRST CARCINOGEN DOSE (STUDY DURATION: 53 WK), Route [Inhibitor]: SUBCUTANEOUS, Species: MOUSE, Strain/Sex: A/J/FEMALE, Target Tissue: Type of Lesion: LUNG: ADENOMA OR ADENOCARCINOMA, Dose [Carcinogen]: 10 UMOL ONCE 1 WK POST FIRST INHIBITOR DOSE (STUDY DURATION: 53 WK), Promoter: NONE) of the same compound?
The value was 100%, 100%, 0%, not significant.

And the “tumour outcome (control, treated, inhibition, significance)” value (Carcinogen: 4-NITROQUINOLINE-1-OXIDE, 56-57-5, Dose [Inhibitor]: 0, 0.05% IN DRINKING WATER AD LIBITUM (STUDY DURATION: 30 WK), Route [Inhibitor]: ORAL, Species: MOUSE, Strain/Sex: DDY/MALE, Target Tissue: Type of Lesion: LUNG: TUMOR, Dose [Carcinogen]: 10 MG/KG BW IN OLIVE OIL/CHOLESTEROL (20:1) ONCE, Promoter: GLYCEROL, 56-81-5)?
Its value is 94%, 93%, 1%, not significant.

And the “tumour outcome (control, treated, inhibition, significance)” value (Carcinogen: 4-NITROQUINOLINE-1-OXIDE, 56-57-5, Dose [Inhibitor]: 0, 0.05% IN DRINKING WATER BEGINNING 5 WK POST CARCINOGEN TREATMENT AND CONTINUING FOR 25 WK (STUDY DURATION: 30 WK), Route [Inhibitor]: ORAL, Species: MOUSE, Strain/Sex: DDY/MALE, Target Tissue: Type of Lesion: LUNG: TUMORS, Dose [Carcinogen]: 10 MG/KG BW IN OLIVE OIL AND CHOLESTEROL (20:1) ONCE, Promoter: NONE USED)?
The value was 94%, 93%, 1%, not significant.

What about the “tumour outcome (control, treated, inhibition, significance)” value (Carcinogen: 4-NITROQUINOLINE-1-OXIDE, 56-57-5, Dose [Inhibitor]: 0, 500 PPM IN DIET FOR 10 WK BEGINNING 1 WK PRIOR TO CARCINOGEN TREATMENT (STUDY DURATION: 32 WK), Route [Inhibitor]: ORAL, Species: RAT, Strain/Sex: F344/MALE, Target Tissue: Type of Lesion: TONGUE: CARCINOMA, Dose [Carcinogen]: 20 PPM IN DRINKING WATER FOR 8 WK, Promoter: NONE USED) of the same compound?
Its value is 13/24 (54%), 3/17 (18%), 67%, p<0.05.

And the “tumour outcome (control, treated, inhibition, significance)” value (Carcinogen: 4-NITROQUINOLINE-1-OXIDE, 56-57-5, Dose [Inhibitor]: 0, 500 PPM IN DIET FOR 10 WK BEGINNING 1 WK PRIOR TO CARCINOGEN TREATMENT (STUDY DURATION: 32 WK), Route [Inhibitor]: ORAL, Species: RAT, Strain/Sex: F344/MALE, Target Tissue: Type of Lesion: TONGUE: PAPILLOMA, Dose [Carcinogen]: 20 PPM IN DRINKING WATER FOR 8 WK, Promoter: NONE USED)?
The value was 4/24 (17%), 2/17 (12%), 29%, not significant.

And the “tumour outcome (control, treated, inhibition, significance)” value (Carcinogen: 4-NITROQUINOLINE-1-OXIDE, 56-57-5, Dose [Inhibitor]: 0, 500 PPM IN DIET FOR 22 WK BEGINNING 1 WK POST CARCINOGEN TREATMENT (STUDY DURATION: 32 WK), Route [Inhibitor]: ORAL, Species: RAT, Strain/Sex: F344/MALE, Target Tissue: Type of Lesion: TONGUE: CARCINOMA, Dose [Carcinogen]: 20 PPM IN DRINKING WATER FOR 8 WK, Promoter: NONE USED)?
Its value is 13/24 (54%), 4/17 (24%), 56%, p<0.05.

And the “tumour outcome (control, treated, inhibition, significance)” value (Carcinogen: 4-NITROQUINOLINE-1-OXIDE, 56-57-5, Dose [Inhibitor]: 0, 500 PPM IN DIET FOR 22 WK BEGINNING 1 WK POST CARCINOGEN TREATMENT (STUDY DURATION: 32 WK), Route [Inhibitor]: ORAL, Species: RAT, Strain/Sex: F344/MALE, Target Tissue: Type of Lesion: TONGUE: PAPILLOMA, Dose [Carcinogen]: 20 PPM IN DRINKING WATER FOR 8 WK, Promoter: NONE USED)?
The value was 4/24 (17%), 2/17 (12%), 29%, not significant.

What about the “tumour outcome (control, treated, inhibition, significance)” value (Carcinogen: 7,12-DIMETHYLBENZ[A]ANTHRACENE, 57-97-6, Dose [Inhibitor]: 0, 0.05% IN DRINKING WATER AD LIBITUM FOR 30 WK BEGINNING 1 WK POST CARCINOGEN DOSE (STUDY DURATION: 31 WK), Route [Inhibitor]: ORAL, Species: MOUSE, Strain/Sex: ICR/FEMALE, Target Tissue: Type of Lesion: SKIN: TUMOR, Dose [Carcinogen]: 100 UG ONCE, Promoter: 12-O-TETRADECANOYLPHORBOL-13-ACETATE, 16561-29-8) of the same compound?
Its value is 13/16 (81%), 8/16 (50%), 38%, not significant.

And the “tumour outcome (control, treated, inhibition, significance)” value (Carcinogen: 7,12-DIMETHYLBENZ[A]ANTHRACENE, 57-97-6, Dose [Inhibitor]: 0, 200 NMOL IN 200 µL ACETONE 2/WK BEGINNING 1 WK POST CARCINOGEN DOSE APPLIED SIMULTANEOUSLY WITH PROMOTER FOR 20 WK (S, Route [Inhibitor]: DERMAL, Species: MOUSE, Strain/Sex: ICR/?, Target Tissue: Type of Lesion: SKIN: PAPILLOMA, Dose [Carcinogen]: 100 UG ONCE, Promoter: 12-O-TETRADECANOYLPHORBOL-13-ACETATE, 16561-29-8)?
Its value is 69%, 31%, 55%, not calculated.

And the “tumour outcome (control, treated, inhibition, significance)” value (Carcinogen: 7,12-DIMETHYLBENZ[A]ANTHRACENE, 57-97-6, Dose [Inhibitor]: 0, 200 NMOL IN 200 µL ACETONE 2/WK FOR 40 WK APPLIED SIMULTANEOUSLY WITH PROMOTER BEGINNING 1 WK POST CARCINOGEN DOSE (S, Route [Inhibitor]: DERMAL, Species: MOUSE, Strain/Sex: ICR/FEMALE, Target Tissue: Type of Lesion: SKIN: TUMOR, Dose [Carcinogen]: 100 UG ONCE, Promoter: 12-O-TETRADECANOYLPHORBOL-13-ACETATE, 16561-29-8)?
The value was 10/15 (67%), 8/15 (53%), 21%, not significant.

What about the “tumour outcome (control, treated, inhibition, significance)” value (Carcinogen: 7,12-DIMETHYLBENZ[A]ANTHRACENE, 57-97-6, Dose [Inhibitor]: 0, 200 NMOL PALM CAROTENE FOR 22 WK BEGINNING 1 WK POST CARCINOGEN DOSE (STUDY DURATION: 40 WK), Route [Inhibitor]: DERMAL, Species: MOUSE, Strain/Sex: ICR/FEMALE, Target Tissue: Type of Lesion: SKIN: TUMOR, Dose [Carcinogen]: 100 UG ONCE, Promoter: GLYCOCHOLIC ACID, 475-31-0, MEZEREIN, 34807-41-5, Promoter: GLYCOCHOLIC ACID, 475-31-0, MEZEREIN, 34807-41-5) of the same compound?
Its value is 26%, 0%, 100%, not calculated.

What about the “tumour outcome (control, treated, inhibition, significance)” value (Carcinogen: 7,12-DIMETHYLBENZ[A]ANTHRACENE, 57-97-6, Dose [Inhibitor]: 0, 250 MG SUSPENDED IN LIQUID PARAFFIN APPLIED TO EACH CHEEK POUCH 2/WK BEGINNING 15 D POST LAST CARCINOGEN DOSE AND CON, Route [Inhibitor]: DERMAL, Species: HAMSTER, Strain/Sex: SYRIAN/MALE, Target Tissue: Type of Lesion: CHEEK POUCH: TUMOR, Dose [Carcinogen]: 0.125 MG (0.25% LIQUID PARAFFIN SOLUTION) APPLIED TO EACH CHEEK POUCH FOR 1 MO, Promoter: NONE USED) of the same compound?
Its value is 10/15 (67%), 0/20 (0%), 100%, not calculated.

What about the “tumour outcome (control, treated, inhibition, significance)” value (Carcinogen: 7,12-DIMETHYLBENZ[A]ANTHRACENE, 57-97-6, Dose [Inhibitor]: 0, 250 MG SUSPENDED IN LIQUID PARAFFIN APPLIED TO EACH CHEEK POUCH 2/WK BEGINNING 15 D POST LAST CARCINOGEN DOSE AND CON, Route [Inhibitor]: DERMAL, Species: HAMSTER, Strain/Sex: SYRIAN/MALE, Target Tissue: Type of Lesion: STOMACH: TUMOR, Dose [Carcinogen]: 0.125 MG (0.25% LIQUID PARAFFIN IN SOLUTION) APPLIED TO EACH CHEEK POUCH 2/WK FOR 1 MO, Promoter: NONE USED) of the same compound?
Its value is 15/15 (100%), 0/20 (0%), 100%, not calculated.

What about the “tumour outcome (control, treated, inhibition, significance)” value (Carcinogen: 7,12-DIMETHYLBENZ[A]ANTHRACENE, 57-97-6, Dose [Inhibitor]: 0, 290 IU/KG IN 100 µL PEANUT OIL 5 D/WK BEGINNING 1 WK POST CARCINOGEN DOSE AND CONTINUING FOR DURATION OF STUDY (STUDY, Route [Inhibitor]: GAVAGE, Species: MOUSE, Strain/Sex: HRA/SKH/FEMALE, Target Tissue: Type of Lesion: SKIN: CARCINOMA, Dose [Carcinogen]: 10 NMOL IN 50 µL ACETONE ONCE) of the same compound?
Its value is 7/25 (28%), 7/38 (18%), 36%, not calculated.

And the outcome (Carcinogen: 7,12-DIMETHYLBENZ[A]ANTHRACENE, 57-97-6, Dose [Inhibitor]: 0, 290 IU/KG IN 100 µL PEANUT OIL 5 D/WK BEGINNING 1 WK POST CARCINOGEN DOSE AND CONTINUING FOR DURATION OF STUDY (STUDY, Route [Inhibitor]: GAVAGE, Species: MOUSE, Strain/Sex: HRA/SKH/FEMALE, Target Tissue: Type of Lesion: SKIN: PAPILLOMA, Dose [Carcinogen]: 10 NMOL IN 50 µL ACETONE ONCE)?
Its outcome is 97%, 77%, 21%, not calculated at 20 wk; 68%, 50%, 27%, not calculated at 40 wk.
